Paper PMC6081459, “Pathogen-derived HLA-E bound epitopes reveal broad primary anchor pocket tolerability and conformationally malleable peptide binding” (Nature Communications, 2018)
Like-named read-outs stand apart in the source and are kept apart here.

How the values were obtained:
HLA-E-β2m complexes [1] = format: binding, human; conditions: for Thermal melt (Tm) of peptide-refolded HLA-E-β2m complex: Protein Thermal Shift dye, 5 μg complex, ramp 25 to 95 °C, quadruplicate, median Derivative Tm
[2] = system: Mamu-E-restricted CD8+ T cells; format: cell-based, rhesus macaques
HLA-E-β2m complexes [3] = format: binding, human; conditions: 200 M excess peptide, 2 h at room temperature
[4] = system: Mamu-E restricted CD8^+ T cells; format: cell-based, rhesus macaques (Macaca mulatta)

Sequence | Increase in stability (Tm) of the HLA-E-β2m complex versus no peptide refolded forms (HLA-E-β2m complexes [1]) [°C] | Thermal melt (Tm) of peptide-refolded HLA-E-β2m complex (HLA-E-β2m complexes [1]) | Rhesus CD8+ T cell responses to peptide presented by Mamu-E versus HLA-E [2] | Displacement of VL9 from pre-refolded HLA-E-β2m-VL9 complexes (BN-PAGE) (HLA-E-β2m complexes [3]) | Mamu-E restricted CD8+ T cell responses (IFNγ and/or TNFα, ICS) ([4]; PBMC of six RM vaccinated with HIVGag-insert RhCMV68-1 vector, blocking with VL9 (MHC-E) or CLIP + anti-MHC-II) | Mamu-E restricted CD8+ T cell responses (IFNγ and/or TNFα, ICS) [4]
VMAPRTVLL [VL9, reference compound] | ≤ 10 | 47.5 °C | – | – | – | –
RMYSPTSIL [RL9HIV] | – | not possible to obtain a reproducible thermal melt pattern | of comparable magnitude | also displaced VL9 from HLA-E-β2m complexes | elicited Mamu-E restricted CD8^+ T cell responses | –
RLPAKAPLL [Mtb44] | – | 50.2 °C | of comparable magnitude | readily displaced | – | elicited Mamu-E-restricted CD8^+ T cell responses
